Assay results published in ChEMBL document CHEMBL1201862, “PubChem BioAssay data set” (2004).
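Five compound concentrations were applied to cells in 96-well plates for 48 hours; endpoints were derived by simple linear interpolation of the resulting dose-response curve. GI50 = concentration required for 50% inhibition of growth.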 Calls of active or inactive are those of the source. No stated cut-off is given here; in the data, active = GI50 up to about 1.1 µM and inactive = higher.

Key:
Test in all cases: DTP human tumour cell line panel, 48 h
[1] = tested on: SK-MEL-28
[2] = tested on: HT-29
[3] = tested on: OVCAR-3
[4] = tested on: ACHN
[5] = tested on: NCI-H23
[6] = tested on: SF-295
[7] = tested on: MDA-MB-231
[8] = tested on: EKVX
[9] = tested on: SK-MEL-5
[10] = tested on: CAKI-1
[11] = tested on: NCI/ADR-RES
[12] = tested on: CCRF-CEM
[13] = tested on: UACC-257
[14] = tested on: DU-145
[15] = tested on: RXF 393
[16] = tested on: 786-0
[17] = tested on: SK-MEL-2
[18] = tested on: RPMI-8226
[19] = tested on: HL-60

Row | Structure (SMILES) | GI50 [1] | GI50 [2] | GI50 [3] | GI50 [4] | GI50 [5] | GI50 [6] | GI50 [7] | GI50 [8] | GI50 [9] | GI50 [10] | GI50 [11] | GI50 [12] | GI50 [13] | GI50 [14] | GI50 [15] | GI50 [16] | GI50 [17] | GI50 [18] | GI50 [19]
1 | O=C(O)c1c2c(c(O)c3c1CN(C1CCCCC1)CO3)OCN(C1CCCCC1)C2 | > 100 µM (inactive) | > 100 µM (inactive) | 69 µM (inactive) | > 100 µM (inactive) | > 100 µM (inactive) | 92.7 µM (inactive) | 46.7 µM (inactive) | 47.1 µM (inactive) | > 100 µM (inactive) | > 100 µM (inactive) | > 100 µM (inactive) | 10.4 µM (inactive) | > 100 µM (inactive) | > 100 µM (inactive) | 63.4 µM (inactive) | 68.4 µM (inactive) | > 100 µM (inactive) | 40.5 µM (inactive) | 
2 | O=c1cc(NNCc2ccccc2)[nH]c(=O)[nH]1 | > 100 µM (inactive) | > 100 µM (inactive) | > 100 µM (inactive) | > 100 µM (inactive) | > 100 µM (inactive) | > 100 µM (inactive) | > 100 µM (inactive) | > 100 µM (inactive) | > 100 µM (inactive) | > 100 µM (inactive) | > 100 µM (inactive) | > 100 µM (inactive) | > 100 µM (inactive) | > 100 µM (inactive) | > 100 µM (inactive) | > 100 µM (inactive) |  | > 100 µM (inactive) | > 100 µM (inactive)
3 | C/C(=N\NC(=[Se])N1CCN(c2ccccn2)CC1)c1ccccn1 | 10 µM (inactive) | 0.01 µM (active) | 0.01 µM (active) | 2.37 µM (inactive) | 3.06 µM (inactive) | 2.42 µM (inactive) | 0.01 µM (active) |  | 0.0475 µM (active) | 2.65 µM (inactive) | 0.0023 µM (active) |  | 0.01 µM (active) | 5.14 µM (inactive) | 0.0352 µM (active) | 0.243 µM (active) | 0.238 µM (active) | 0.036 µM (active) | 0.0432 µM (active)
4 | CCn1c2ccccc2c2ccc(C3C4C(=O)N(c5cccc6ccccc56)C(=O)C4ON3C(C(N)=O)c3ccccc3)cc21 (stereo unspecified) | > 25 µM (inactive) | 8.24 µM (inactive) | 13.7 µM (inactive) | > 25 µM (inactive) | 24 µM (inactive) | > 25 µM (inactive) | > 25 µM (inactive) | 12.9 µM (inactive) | 14.2 µM (inactive) | 4.66 µM (inactive) | > 25 µM (inactive) |  | 7.73 µM (inactive) | 14.8 µM (inactive) | 9.89 µM (inactive) | 21.2 µM (inactive) | 12.4 µM (inactive) |  | 17.7 µM (inactive)
5 | CNC(=O)CCC(NC(C)=O)C(=O)NC(Cc1ccc(NC(=O)CCCCC(C)=O)cc1)C(=O)NC(CCC(=O)NC)C(=O)NC (stereo unspecified) | > 100 µM (inactive) | > 100 µM (inactive) | > 100 µM (inactive) | > 100 µM (inactive) | > 100 µM (inactive) | > 100 µM (inactive) | > 100 µM (inactive) | > 100 µM (inactive) | > 100 µM (inactive) | > 100 µM (inactive) | > 100 µM (inactive) |  |  | > 100 µM (inactive) | > 100 µM (inactive) | > 100 µM (inactive) |  | > 100 µM (inactive) | > 100 µM (inactive)
6 | COc1ccc(C2Oc3c(cccc3OC)C=C2[N+](=O)[O-])cc1 (stereo unspecified) | 1.91 µM (inactive) | 1.63 µM (inactive) | 2 µM (inactive) | 1.74 µM (inactive) | 3.08 µM (inactive) | 3.83 µM (inactive) | 3.3 µM (inactive) | 10.6 µM (inactive) | 1.51 µM (inactive) | 1.58 µM (inactive) | 2.58 µM (inactive) | 0.451 µM (active) | 2.96 µM (inactive) | 4.38 µM (inactive) | 1.4 µM (inactive) | 2.31 µM (inactive) |  | 2.01 µM (inactive) | 2.17 µM (inactive)
7 | O=C(c1cc(Cl)cc(Cl)c1)N(C(=S)OC12CC3CC(CC(C3)C1)C2)c1ccccc1 | 59.4 µM (inactive) | 39.4 µM (inactive) | 45.3 µM (inactive) | 33.2 µM (inactive) | 36.1 µM (inactive) | 34.5 µM (inactive) | 38.6 µM (inactive) | 21.8 µM (inactive) | 28.3 µM (inactive) | 42.1 µM (inactive) | 37.3 µM (inactive) | 5.24 µM (inactive) | 43.3 µM (inactive) | 75.2 µM (inactive) | 41.2 µM (inactive) | 32.8 µM (inactive) | 19.4 µM (inactive) |  | 24.4 µM (inactive)
8 | O=C(O)c1nc2ccc(C(F)(F)F)cc2nc1Nc1ccc(Cl)c(Cl)c1 | 13 µM (inactive) | 9.16 µM (inactive) | 6.37 µM (inactive) | 7.67 µM (inactive) | 4.17 µM (inactive) | 4.36 µM (inactive) | 6.05 µM (inactive) | 7.26 µM (inactive) | 10.6 µM (inactive) | 15.5 µM (inactive) | 5.96 µM (inactive) |  | 29.2 µM (inactive) | 9.68 µM (inactive) | 13.4 µM (inactive) | 10.5 µM (inactive) | 2.31 µM (inactive) |  | 5.62 µM (inactive)
9 | c1ccc(C2C3=C(CCCC3)Nc3nnnn32)cc1 (stereo unspecified) |  |  | 37.8 µM (inactive) | 82.4 µM (inactive) | > 100 µM (inactive) | 57.4 µM (inactive) | > 100 µM (inactive) |  | 48.9 µM (inactive) | > 100 µM (inactive) | 98.9 µM (inactive) |  | > 100 µM (inactive) | > 100 µM (inactive) | 0.226 µM (active) | > 100 µM (inactive) | 34.4 µM (inactive) |  | 33.1 µM (inactive)
10 | CCOC(=O)c1nc2ccc(C(F)(F)F)cc2nc1NCc1ccc(F)cc1 | 44 µM (inactive) | 35.4 µM (inactive) | 50.2 µM (inactive) | 31.6 µM (inactive) | 27.5 µM (inactive) | 75.5 µM (inactive) | 32.1 µM (inactive) | 37.8 µM (inactive) |  | 41.5 µM (inactive) | 24 µM (inactive) | 24.9 µM (inactive) | 27.5 µM (inactive) | 46.5 µM (inactive) | 37.2 µM (inactive) | 30.1 µM (inactive) | 59.4 µM (inactive) | 23.5 µM (inactive) | 29.6 µM (inactive)
11 | CCOC(=O)Nn1c(C)nnc1CC#N | > 100 µM (inactive) | > 100 µM (inactive) | > 100 µM (inactive) | > 100 µM (inactive) | > 100 µM (inactive) | > 100 µM (inactive) | > 100 µM (inactive) |  | > 100 µM (inactive) | > 100 µM (inactive) | > 100 µM (inactive) |  | > 100 µM (inactive) | > 100 µM (inactive) | > 100 µM (inactive) | > 100 µM (inactive) | > 100 µM (inactive) | > 100 µM (inactive) | > 100 µM (inactive)
12 | COc1ccc2c3c([nH]c2c1)[C@H](C=C(C)C)N1C(=O)[C@@H]2CCCN2C(=O)[C@@H]1C3 [FUMITREMORGIN] | 22.2 µM (inactive) | > 100 µM (inactive) | > 100 µM (inactive) | 56 µM (inactive) | > 100 µM (inactive) | 51.3 µM (inactive) | 70.8 µM (inactive) | > 100 µM (inactive) |  | > 100 µM (inactive) | > 100 µM (inactive) | > 100 µM (inactive) | > 100 µM (inactive) | > 100 µM (inactive) | 38.1 µM (inactive) | 48 µM (inactive) | > 100 µM (inactive) | > 100 µM (inactive) | > 100 µM (inactive)
